Reference: the supplement of paper PMC6004109

Assays:
Conditions in all cases: temperature: 37 °C
[1] = system: Saccharomyces cerevisiae ZIM 2558 (RPMI); assay: FICI minimum (fractional inhibitory concentration index, Loewe) (dimensionless); higher = less synergy / more antagonism
Experimental: (§1)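 CLSI M27-A3 checkerboard broth microdilution of an immunomodulatory drug (or amoxicillin) combined with an antifungal against S. cerevisiae and C. glabrata isolates. Growth was read as OD600 after incubation at 37 °C (48 h for the reported MICs). Reported quantities are the FICI (Loewe: MIC50 for azoles and immunomodulators, MIC90 for AMB; ≤0.5 synergy, ≥4 antagonism), as minimum and maximum over the surface, and the Bliss-independence sum of statistically significant ΔE (positive = synergy). Clinical isolates were tested in RPMI; C. glabrata ATCC 2001 and its pdr1Δ mutant were tested in YPD.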

[2] = system: Saccharomyces cerevisiae ZIM 2566 (RPMI); assay: as above
Experimental: as §1

[3] = system: Candida glabrata ZIM 2344 (RPMI); assay: FICI maximum (fractional inhibitory concentration index, Loewe) (dimensionless); higher = less synergy / more antagonism
Experimental: as §1

[4] = system: Candida glabrata ZIM 2365 (RPMI); assay: as above
Experimental: as §1

[5] = system: Candida glabrata ZIM 2369 (RPMI); assay: as above
Experimental: as §1

[6] = system: Candida glabrata ZIM 2382 (RPMI); assay: as above
Experimental: as §1

[7] = system: Candida glabrata ZIM 2385 (RPMI); assay: as above
Experimental: as §1

[8] = system: Candida glabrata ZIM 2389 (RPMI); assay: as above
Experimental: as §1

[9] = system: Saccharomyces cerevisiae ZIM 2247 (RPMI); assay: as above
Experimental: as §1

[10] = system: Saccharomyces cerevisiae ZIM 2255 (RPMI); assay: as above
Experimental: as §1

[11] = system: Saccharomyces cerevisiae ZIM 2260 (RPMI); assay: as above
Experimental: as §1

[12] = system: Saccharomyces cerevisiae ZIM 2269 (RPMI); assay: as above
Experimental: as §1

[13] = system: Saccharomyces cerevisiae ZIM 2558 (RPMI); assay: as above
Experimental: as §1

[14] = system: Saccharomyces cerevisiae ZIM 2566 (RPMI); assay: as above
Experimental: as §1

[15] = system: Candida glabrata ZIM 2344 (RPMI); assay: Bliss independence sum of statistically significant ΔE (measured minus predicted growth inhibition) over checkerboard surface (fraction (sum of ΔE; 1 = 100%)); higher = more synergy
[16] = system: Candida glabrata ZIM 2365 (RPMI); assay: as above
[17] = system: Candida glabrata ZIM 2369 (RPMI); assay: as above
[18] = system: Candida glabrata ZIM 2382 (RPMI); assay: as above
[19] = system: Candida glabrata ZIM 2385 (RPMI); assay: as above
[20] = system: Candida glabrata ZIM 2389 (RPMI); assay: as above
[21] = system: Saccharomyces cerevisiae ZIM 2247 (RPMI); assay: as above
[22] = system: Saccharomyces cerevisiae ZIM 2255 (RPMI); assay: as above
[23] = system: Saccharomyces cerevisiae ZIM 2260 (RPMI); assay: as above
[24] = system: Saccharomyces cerevisiae ZIM 2269 (RPMI); assay: as above
[25] = system: Saccharomyces cerevisiae ZIM 2558 (RPMI); assay: as above
[26] = system: Saccharomyces cerevisiae ZIM 2566 (RPMI); assay: as above

SMILES | FICI minimum [1] | FICI minimum [2] | FICI maximum [3] | FICI maximum [4] | FICI maximum [5] | FICI maximum [6] | FICI maximum [7] | FICI maximum [8] | FICI maximum [9] | FICI maximum [10] | FICI maximum [11] | FICI maximum [12] | FICI maximum [13] | FICI maximum [14] | Bliss independence sum [15] | Bliss independence sum [16] | Bliss independence sum [17] | Bliss independence sum [18] | Bliss independence sum [19] | Bliss independence sum [20] | Bliss independence sum [21] | Bliss independence sum [22] | Bliss independence sum [23] | Bliss independence sum [24] | Bliss independence sum [25] | Bliss independence sum [26]
CN(Cc1cnc2nc(N)nc(N)c2n1)c1ccc(C(=O)N[C@@H](CCC(=O)O)C(=O)O)cc1 [methotrexate] + OC(Cn1cncn1)(Cn1cncn1)c1ccc(F)cc1F [fluconazole] | 0.406 | 1 | 0.656 | 1.16 | 1.16 | 2.16 | 2.16 | 1.16 | 1.16 | 1.08 | 2 | 1.08 | 1.04 | 2.16 | 1.94 | 0.394 | 0.22 | -1.36 | -0.819 | 0.272 | -0.857 | -0.754 | -0.0461 | -1.86 | 8.35 | -4.52
COc1c(C)c2c(c(O)c1C/C=C(\C)CCC(=O)O)C(=O)OC2 [mycophenolic acid] + C[C@@H]1[C@H](O)[C@@H](C)/C=C/C=C/C=C/C=C/C=C/C=C/C=C/[C@H](O[C@@H]2O[C@H](C)[C@@H](O)[C@H](N)[C@@H]2O)C[C@@H]2O[C@](O)(C[C@@H](O)C[C@@H](O)[C@H](O)CC[C@@H](O)C[C@@H](O)CC(=O)O[C@H]1C)C[C@H](O)[C@H]2C(=O)O [amphotericin B] | 0.375 | 0.633 | 1.06 | 1.02 | 1.12 | 1.06 | 1.06 | 1.01 | 1.53 | 1.25 | 1.04 | 1.25 | 1.03 | 1.07 | 4.74 | 6.59 | 0.709 | 1.76 | 2.79 | 4.37 | -2.18 | -0.43 | 3.32 | 6.09 | 3.61 | -0.484
COc1c(C)c2c(c(O)c1C/C=C(\C)CCC(=O)O)C(=O)OC2 [mycophenolic acid] + OC(Cn1cncn1)(Cn1cncn1)c1ccc(F)cc1F [fluconazole] | 1.01 | 1.01 | 1.25 | 8.5 | 4.25 | 4.25 | 2.25 | 2.25 | 2.53 | 2.02 | 2.02 | 2.25 | 4.25 | 2.27 | 6.94 | -4.84 | -2.4 | -1.7 | -0.722 | 1.41 | -2.82 | -3.66 | -1.55 | -3.9 | -8.75 | -0.316
C=CC[C@@H]1/C=C(\C)C[C@H](C)C[C@H](OC)[C@H]2O[C@@](O)(C(=O)C(=O)N3CCCC[C@H]3C(=O)O[C@H](/C(C)=C/[C@@H]3CC[C@@H](O)[C@H](OC)C3)[C@H](C)[C@@H](O)CC1=O)[C@H](C)C[C@@H]2OC [tacrolimus] + CCC(C)n1ncn(-c2ccc(N3CCN(c4ccc(OCC5COC(Cn6cncn6)(c6ccc(Cl)cc6Cl)O5)cc4)CC3)cc2)c1=O [itraconazole] | 0.25 | 0.13 | 0.5 | 1.01 | 0.5 | 1 | 0.5 | 0.126 | 0.52 | 0.502 | 0.5 | 2.5 | 0.51 | 1 | 5.44 | 2.36 | 3.73 | 1.94 | 5.63 | 8.47 | 6.82 | 7.07 | 10.8 | 4.75 | 8.75 | 9.53
